Patent US20220023386A1, “METHOD FOR THE TREATMENT OR PREVENTION OF OSTEOARTHRITIS” (Chondropeptix B.V., priority 2016, published 2022)

Columns and labels:
Experiment in all cases: Expression of OA chondrocyte phenotype marker genes by RT-qPCR after peptide exposure
Assay type in all cases: cell-based, human
[1] = system: OA articular chondrocytes; set-up: key: [—] denotes the absence of a significant effect or a significantly decreased expression of chondrogenic marker BAPX1/NKX3.2 or an increased expression of OA chondrocyte phenotypic markers ALP, MMP13, ADAMTS5, COX2, COL10A and RUNX2 in OA articular chondrocytes, in comparison to untreated OA articular chondrocyts; conditions: Table 1, 20-mer peptides with native cysteines; vs untreated OA articular chondrocytes
Experimental: (§1) The action of 20-mer peptides (10 nM) of SEQ ID NO: 2-15 (peptides with 1 amino acids intervals (19 amino acid overlap)) and SEQ ID NO:49 on the expression of the indicated genes was determined on a validated pool of passage 2 OA human articular chondrocytes (n=18) and compared to full-length recombinant BMP-7 (1 nM). Samples were harvested after 24 hours and analyzed for indicated genes by RT-qPCR (corrected for 28S rRNA expression and relative to control conditions (no peptide exposure)). In the graphs, numbers on the x-axis represent individual peptides according to their SEQ ID NO:, error bars represent mean±SEM, statistical differences were calculated (one-way ANOVA with bonferroni correction) to control condition. *=p<0.05 lower than control condition for COL10A1, ALP, RUNX2, COX-2, MMP13 and ADAMTS5 and higher than control condition for BAPX1/NKX3.2. Random peptide is a peptide according to SEQ ID NO: 49 with amino acid sequence […].

[2] = system: OA articular chondrocytes; set-up: key: [—] denotes the absence of a significant effect or a significantly decreased expression of chondrogenic marker BAPX1/NKX3.2 or an increased expression of OA chondrocyte phenotypic markers ALP, MMP13, ADAMTS5, COX2, COL10A and RUNX2 in OA articular chondrocytes, in comparison to untreated OA articular chondrocyts; conditions: Table 1, 20-mer peptides with native cysteines; vs untreated OA articular chondrocytes; remark: listed apart in the source
[3] = system: OA articular chondrocytes; set-up: key to ADAMTS5 expression: [+] denotes a significantly increased expression of chondrogenic marker BAPX1/NKX3.2 or a decreased expression of OA chondrocyte phenotypic markers ALP, MMP13, ADAMTS5, COX2, COL10A and RUNX2 in OA articular chondrocytes, in comparison to untreated OA articular chondrocytes.; [−] denotes the absence of a significant effort or a significantly decreased expression of chondrogenic marker BAPX1/NKX3.2 or an increased expression of OA chondrocyte phenotypic markers ALP, MMP13, ADAMTS5, COX2, COL10A and RUNX2 in OA articular chondrocytes, in comparison to untreated OA articular chondrocytes; conditions: Table 3, N- and C-terminally truncated peptides; vs untreated OA articular chondrocytes
[4] = system: OA articular chondrocytes; set-up: key: [+] denotes a significantly increased expression of chondrogenic marker BAPX1/NKX3.2 or a decreased expression of OA chondrocyte phenotypic markers ALP, MMP13, ADAMTS5, COX2, COL10A and RUNX2 in OA articular chondrocytes, in comparison to untreated OA articular chondrocytes.; [−] denotes the absence of a significant effort or a significantly decreased expression of chondrogenic marker BAPX1/NKX3.2 or an increased expression of OA chondrocyte phenotypic markers ALP, MMP13, ADAMTS5, COX2, COL10A and RUNX2 in OA articular chondrocytes, in comparison to untreated OA articular chondrocytes; conditions: vs untreated OA articular chondrocytes
[5] = system: OA articular chondrocytes; set-up: key: [+] denotes a significantly increased expression of chondrogenic marker BAPX1/NKX3.2 or a decreased expression of OA chondrocyte phenotypic markers ALP, MMP13, ADAMTS5, COX2, COL10A and RUNX2 in OA articular chondrocytes, in comparison to untreated OA articular chondrocytes.; [−] denotes the absence of a significant effort or a significantly decreased expression of chondrogenic marker BAPX1/NKX3.2 or an increased expression of OA chondrocyte phenotypic markers ALP, MMP13, ADAMTS5, COX2, COL10A and RUNX2 in OA articular chondrocytes, in comparison to untreated OA articular chondrocytes; conditions: Table 2 (FIGS. 2-8), peptide 10 nM, 24 hours, vs untreated OA articular chondrocytes
Experimental: as §1

[6] = Table 3, N- and C-terminally truncated peptides

| Substance | ADAMTS5 expression [3] | ALP expression [4, 6] | BAPX1/NKX3.2 expression [4, 6] | COL10A expression [4, 6] | COX-2 expression [4, 6] | MMP13 expression [4, 6] | RUNX2 expression [4, 6] | also measured |
| --- | --- | --- | --- | --- | --- | --- | --- | --- |
| 43 (LNAISVLYFDDSSNVILKKY; homo sapiens) [compound 43] |  |  |  |  |  |  |  | ADAMTS5 expression [1]: —; ALP expression [2]: —; BAPX1/NKX3.2 expression [2]: —; COL10A expression [2]: —; COX-2 expression [2]: —; MMP13 expression [2]: —; RUNX2 expression [2]: — |
| 41 (FPLNSYMNATNHAIVQTLVH; homo sapiens) [compound 41] |  |  |  |  |  |  |  | ADAMTS5 expression [1]: —; ALP expression [2]: —; BAPX1/NKX3.2 expression [2]: —; COL10A expression [2]: —; COX-2 expression [2]: —; MMP13 expression [2]: —; RUNX2 expression [2]: — |
| 27 (YSEGESAFPLNSYM; homo sapiens) [compound 27] | + | + | + | + | + | + | + |  |
| 24 (YYSEGESAFPLNS; homo sapiens) [compound 24] | + | + | + | + | + | + | + |  |
| 44 (SSNVILKKYRNMVVRACGCH; homo sapiens) [compound 44] |  |  |  |  |  |  |  | ADAMTS5 expression [1]: —; ALP expression [2]: —; BAPX1/NKX3.2 expression [2]: —; COL10A expression [2]: —; COX-2 expression [2]: —; MMP13 expression [2]: —; RUNX2 expression [2]: — |
| 29 (YSEGESAFPLNSYMNA; homo sapiens) [compound 29] | + | + | + | + | + | + | + |  |
| 28 (YSEGESAFPLNSYMN; homo sapiens) [compound 28] | + | + | + | + | + | + | + |  |
| 31 (YSEGESAFPLNSYMNATN; homo sapiens) [compound 31] | + | + | + | + | + | + | + |  |
| 35 (PEGYAAYYSEGESAFPLNSYMNATNHA; homo sapiens) [compound 35] | + | + | + | + | + | + | + |  |
| 38 (EALRMANVAENSSSDQRQAC; homo sapiens) [compound 38] |  |  |  |  |  |  |  | ADAMTS5 expression [1]: —; ALP expression [2]: —; BAPX1/NKX3.2 expression [2]: —; COL10A expression [2]: —; COX-2 expression [2]: —; MMP13 expression [2]: —; RUNX2 expression [2]: — |
| 26 (YSEGESAFPLNSY; homo sapiens) [compound 26] | + | + | + | + | + | + | + |  |
| 34 (APEGYAAYYSEGESAFPLNSYMNATNHA; homo sapiens) [compound 34] | + | + | + | + | + | + | + |  |
| 40 (WIIAPEGYAAYYCEGECAFP; homo sapiens) [compound 40] |  |  |  |  |  |  |  | ADAMTS5 expression [1]: —; ALP expression [2]: —; BAPX1/NKX3.2 expression [2]: —; COL10A expression [2]: —; COX-2 expression [2]: —; MMP13 expression [2]: —; RUNX2 expression [2]: — |
| 21 (YAAYYSEGESAFPLNS; homo sapiens) [compound 21] | + | + | + | + | + | + | + |  |
| 16 (YSEGESAFPLNS; homo sapiens) [compound 16] | + | + | + | + | + |  | + | MMP13 expression ([4]; Table 2 (FIGS. 2-8), peptide 10 nM, 24 hours): +; ADAMTS5 expression [5]: +; ALP expression [5]: +; BAPX1/NKX3.2 expression [5]: +; COL10A expression [5]: +; COX-2 expression [5]: +; RUNX2 expression [5]: + |
| 18 (PEGYAAYYSEGESAFPLNS; homo sapiens) [compound 18] | + | + | + | + | + | − | + |  |
| 22 (AAYYSEGESAFPLNS; homo sapiens) [compound 22] | + | + | + | + | + | + | + |  |
| 19 (EGYAAYYSEGESAFPLNS; homo sapiens) [compound 19] | + | + | + | + | + | + | + |  |
| 32 (YSEGESAFPLNSYMNATNH; homo sapiens) [compound 32] | + | + | + | + | + | + | + |  |
| 33 (YSEGESAFPLNSYMNATNHA; homo sapiens) [compound 33] | + | + | + | + | + | + | + |  |
| 25 (YSEGESAFPLNS; homo sapiens) [compound 25] | + | + | + | + | + | + | + |  |
